From the NIST ThermoML archive (doi:10.1007/s10765-007-0223-x)
Numbers after ± are expanded uncertainties.

Experiment: xn = mol fraction of the nth substance listed
Conditions: 101 kPa, Liquid; for speed of sound: Single path-length method

## CCc1ccccc1 [ethylbenzene] + COC(C)(C)C
315.65 K, x2 = 0.503
  speed of sound: 1111.9 ± 2.1 m/s
  mass density: 786.547 ± 0.51 kg/m3
315.65 K, x2 = 0.6
  speed of sound: 1079.6 ± 2.1 m/s
  mass density: 772.257 ± 0.53 kg/m3
315.65 K, x2 = 0.701
  speed of sound: 1050 ± 2.1 m/s
  mass density: 758.651 ± 0.55 kg/m3
315.65 K, x2 = 0.822
  speed of sound: 1012.4 ± 2.1 m/s
  mass density: 741.744 ± 0.57 kg/m3
315.65 K, x2 = 0.899
  speed of sound: 987.36 ± 2.1 m/s
  mass density: 730.538 ± 0.59 kg/m3
315.65 K, x2 = 0.948
  speed of sound: 971.33 ± 2.1 m/s
  mass density: 723.249 ± 0.6 kg/m3
315.65 K, x2 = 0
  mass density: 846.964 ± 0.4 kg/m3
315.65 K, x2 = 0.046
  mass density: 841.648 ± 0.42 kg/m3
315.65 K, x2 = 0.106
  mass density: 834.515 ± 0.44 kg/m3
315.65 K, x2 = 0.212
  mass density: 821.909 ± 0.45 kg/m3
315.65 K, x2 = 0.299
  mass density: 811.155 ± 0.47 kg/m3
315.65 K, x2 = 0.402
  mass density: 798.107 ± 0.49 kg/m3
318.15 K, x2 = 0
  speed of sound: 1236.1 ± 2.1 m/s
  mass density: 844.741 ± 0.4 kg/m3
318.15 K, x2 = 0.046
  speed of sound: 1224.5 ± 2.1 m/s
  mass density: 839.413 ± 0.43 kg/m3
318.15 K, x2 = 0.106
  speed of sound: 1208.7 ± 2.1 m/s
  mass density: 832.261 ± 0.44 kg/m3
318.15 K, x2 = 0.212
  speed of sound: 1180.5 ± 2.1 m/s
  mass density: 819.612 ± 0.46 kg/m3
318.15 K, x2 = 0.299
  speed of sound: 1155.9 ± 2.1 m/s
  mass density: 808.784 ± 0.47 kg/m3
318.15 K, x2 = 0.402
  speed of sound: 1127 ± 2.1 m/s
  mass density: 795.73 ± 0.49 kg/m3
318.15 K, x2 = 0.503
  speed of sound: 1101.4 ± 2.1 m/s
  mass density: 784.128 ± 0.51 kg/m3
318.15 K, x2 = 0.6
  speed of sound: 1068.9 ± 2.1 m/s
  mass density: 769.777 ± 0.53 kg/m3
318.15 K, x2 = 0.701
  speed of sound: 1039.2 ± 2.1 m/s
  mass density: 756.122 ± 0.55 kg/m3
318.15 K, x2 = 0.822
  speed of sound: 1001.4 ± 2.1 m/s
  mass density: 739.136 ± 0.58 kg/m3
318.15 K, x2 = 0.899
  speed of sound: 976.23 ± 2.1 m/s
  mass density: 727.875 ± 0.6 kg/m3
318.15 K, x2 = 0.948
  speed of sound: 960.13 ± 2.1 m/s
  mass density: 720.551 ± 0.61 kg/m3
320.65 K, x2 = 0
  speed of sound: 1226.1 ± 2.1 m/s
  mass density: 842.518 ± 0.41 kg/m3
320.65 K, x2 = 0.046
  speed of sound: 1214.5 ± 2.1 m/s
  mass density: 837.173 ± 0.43 kg/m3
320.65 K, x2 = 0.106
  speed of sound: 1198.6 ± 2.1 m/s
  mass density: 830.003 ± 0.44 kg/m3
320.65 K, x2 = 0.212
  speed of sound: 1170.4 ± 2.1 m/s
  mass density: 817.315 ± 0.46 kg/m3
320.65 K, x2 = 0.299
  speed of sound: 1146 ± 2.1 m/s
  mass density: 806.474 ± 0.48 kg/m3
320.65 K, x2 = 0.402
  speed of sound: 1116.8 ± 2.1 m/s
  mass density: 793.356 ± 0.49 kg/m3
320.65 K, x2 = 0.503
  speed of sound: 1091 ± 2.1 m/s
  mass density: 781.711 ± 0.52 kg/m3
320.65 K, x2 = 0.6
  speed of sound: 1058.7 ± 2.1 m/s
  mass density: 767.333 ± 0.54 kg/m3
320.65 K, x2 = 0.701
  speed of sound: 1028.4 ± 2.1 m/s
  mass density: 753.581 ± 0.56 kg/m3
320.65 K, x2 = 0.822
  speed of sound: 990.46 ± 2.1 m/s
  mass density: 736.516 ± 0.58 kg/m3
320.65 K, x2 = 0.899
  speed of sound: 965.11 ± 2.1 m/s
  mass density: 725.199 ± 0.6 kg/m3
320.65 K, x2 = 0.948
  speed of sound: 948.99 ± 2.1 m/s
  mass density: 717.839 ± 0.61 kg/m3
323.15 K, x2 = 0
  speed of sound: 1216.3 ± 2.1 m/s
  mass density: 840.306 ± 0.41 kg/m3
323.15 K, x2 = 0.046
  speed of sound: 1204.7 ± 2.1 m/s
  mass density: 834.949 ± 0.43 kg/m3
323.15 K, x2 = 0.106
  speed of sound: 1188.8 ± 2.1 m/s
  mass density: 827.754 ± 0.45 kg/m3
323.15 K, x2 = 0.212
  speed of sound: 1160.5 ± 2.1 m/s
  mass density: 815.028 ± 0.47 kg/m3
323.15 K, x2 = 0.299
  speed of sound: 1136.3 ± 2.1 m/s
  mass density: 804.174 ± 0.48 kg/m3
323.15 K, x2 = 0.402
  speed of sound: 1106.9 ± 2.1 m/s
  mass density: 791.012 ± 0.5 kg/m3
323.15 K, x2 = 0.503
  speed of sound: 1080.8 ± 2.1 m/s
  mass density: 779.302 ± 0.52 kg/m3
323.15 K, x2 = 0.6
  speed of sound: 1048.8 ± 2.1 m/s
  mass density: 764.898 ± 0.54 kg/m3
323.15 K, x2 = 0.701
  speed of sound: 1017.8 ± 2.1 m/s
  mass density: 751.042 ± 0.56 kg/m3
323.15 K, x2 = 0.822
  speed of sound: 979.73 ± 2.1 m/s
  mass density: 733.902 ± 0.59 kg/m3
323.15 K, x2 = 0.899
  speed of sound: 954.17 ± 2.1 m/s
  mass density: 722.521 ± 0.6 kg/m3
323.15 K, x2 = 0.948
  speed of sound: 938 ± 2.1 m/s
  mass density: 715.125 ± 0.61 kg/m3
